We go through one compound from patent publication US20230158015A1, “DRUG COMBINATIONS FOR INHIBITING INFLAMMATION AND SRC KINASE ACTIVATION FOLLOWING INVASIVE SURGICAL PROCEDURES” (SINTETICA S.A., priority 2020, published 2023).

The subject of assay [1] is p-Src / total Src. The assay is classed as cell-based, mouse. How it is done:
On day 1, mouse KPC-105 cells were cultured until 300,000 cells per well in a 6 well plate were obtained. On day 2, the cells were treated with 0, 0.5, 1,5, 10, 15, 30, 50 and 100 µM lidocaine for 30 minutes. Plates were then collected and washed with phosphate buffered saline and stored at -80° C. Cells were subsequently lysed with 100 µl of radioimmunoprecipitation assay buffer with protease and phosphatase buffers.
(§1) Protein estimation was done using a Bradford assay under the following conditions: • A Western Blot was stripped with 6 M guanidine hydrochloride after p-Src protein blocking to probe with total Src protein. • 10% SDS-PAGE 10 well Blocking: 5% bovine serum albumin for p-Src blot. • P-Src-Tyr416 (GeneTex GTX81151) Rb: 1:1000 in 5% bovine serum albumin, Overnight. • Total Src (Cell Signaling Technology 2108S ) Rb mAb 1:1000 overnight in 5% milk. • GAPDH (Invitrogen# AM4300) : 1:5000 in 5% milk overnight. • Wash: 4x for 5 minutes each with 1x TBST. • Developed using 50% femto for the p-Src protein and homemade ECL substrate for total Src and GAPDH protein.
Example 4 evaluated endogenous Src and p-Src in 10 µM lidocaine treated mouse KPC-105 cells at different time points.
Example 5 evaluated endogenous Src and p-Src in mouse KPC-105 cells treated with 10 10 µM lidocaine for different time points, and increasing doses of methylnaltrexone after one hour of incubation. Western Blot banding patterns were generated using 15 µg /lane (NP40 lysates) 10% SDS PAGE over a 6-hour duration (lidocaine) and a 1-hour duration (methylnaltrexone).
• P-Src-Tyr416 (GeneTex # GTX81151) Rb: 1:1000 in 5% bovine serum albumin o/n at 4° C. • 10 µg /lane (NP40 lysates) 10% SDS PAGE • Total Src (CST # 2108S ) Rb mAb 1:1000 in 5% bovine serum albumin o/n at 4° C.
• P-Src-Tyr416 (GeneTex # GTX81151) Rb: 1:1000 in 5% bovine serum albumin 3 hours at room temperature • 10 µg /lane (NP40 lysates) 10% SDS PAGE • Total Src (CST # 2108S ) Rb mAb 1:1000 in 5% bovine serum albumin 3 hours at room temperature
• P-Src-Tyr416 (GeneTex # GTX81151) 1:2000 in 5% bovine serum albumin, o/n at 4° C. • Total Src (CST # 2108S ) 1:3000 in 5% bovine serum albumin, o/n at 4° C. • Vinculin (ProteinTech) 1:4000 in 5% milk o/n at 4° C.
• P-Src-Tyr416 (GeneTex # GTX81151) 1:2000 in 5% bovine serum albumin, o/n at 4C • Total Src (CST # 2108S ) 1:3000 in 5% bovine serum albumin, o/n at 4C

In assay [2] the test system is Src phosphorylation at tyrosine 419. The settings on record: cited from earlier work.
Assay [3] concerns p-Src protein. Nature of the assay: p-Src inhibition by increasing lidocaine doses in human pancreatic cancer cells (Western blot). The assay is classed as cell-based. As to conditions: 30 minutes of treatment, 0-100 µM tested. How it is done:
On day 1, pancreatic cancer cells were cultured until 300,000 cells per well in a 6 well plate were obtained. On day 2, the cells were treated with 0, 0.5, 1,5, 10, 15, 30, 50 and 100 µM lidocaine for 30 minutes. Plates were then collected and washed with phosphate buffered saline and stored at -80° C. Cells were subsequently lysed with 100 µl of radioimmunoprecipitation assay buffer with protease and phosphatase buffers.
as §1, with “after phosphor-Src” for “after p-Src”
Background: A western blot detects proteins with antibodies after separation by electrophoresis.

Assay [4] deals with LPS-induced serum inflammatory cytokines. Nature of the assay: LPS-induced inflammation model, serum inflammatory cytokines (LEGENDplex, flow cytometry). The assay is classed as in vivo, mouse. The settings on record: serum of treated mice. How it is done: C57BL/6J mice (6-8 weeks) were purchased from Charles River Laboratories (USA) and acclimatized for at least 1 week before use. All mice were housed in a pathogen-free facility. The mice received LPS for 24 hours. Following 24 hours, mice were treated either with lidocaine alone or methylnaltrexone alone or a combination of both, as shown in Table 1.
At the conclusion of the study, the blood and tissue samples were collected for further study. The serum was used to determine pro-inflammatory cytokines using the LEGENDplex™ mouse inflammation panel (BioLegend, USA) kit followed by flow cytometry. The lungs and spleen tissue samples were used for hematoxylin and eosin (H&E) staining and immunohistochemical analyses for immune cells, including macrophages and natural killer (NK) cells, B cells, T cells, and its subsets. For histopathology and immunohistochemistry (IHC), tissue samples were prepared by cutting 4-µm sections from the paraffin blocks. IHC staining was performed by methods described earlier. The images were captured using bright field microscopy (Nikon Microscope). Two independent investigators evaluated the H&E and all immunohistochemical staining. For slide scoring, each investigator assessed the tissues and gave a score of 0 (no expression) to 4+ (strong uniform expression) as described previously. The data were expressed either as the mean ± SD or mean ± SEM by using Graph Pad Prism software.
Gram-negative bacterial infections are the main cause of acute lung injury, and LPS, which is the main component of the Gram-negative bacteria cell wall, is the major stimulus for the release of inflammatory mediators. Therefore, we measured the effect of lidocaine alone, methylnaltrexone alone, or a combination of lidocaine and methylnaltrexone on LPS-induced serum inflammatory cytokines profiles. Mouse inflammatory cytokines were measured in serum of control and LPS-challenged mice treated with drugs as described in Table 1, using the LEGENDplex™ mouse inflammation panel (BioLegend, USA) kit followed by flow cytometry as per manufacturer’s specifications. […] However, serum tumor necrosis factor-alpha (TNF-α), monocyte chemoattractant protein 1 (MCP- 1), interleukin 10 (IL-10), interleukin 6 (IL-6), and interleukin 17A (IL-17A) levels were found decreased in mice challenged with LPS and treated with lidocaine and methylnaltrexone together (FIGS. 14C-G). IL-1, IL-6, IL-17A, MCP-1, and TNFα are pro- inflammatory cytokines associated with inflammatory signaling. Taken together, these findings indicate that combined treatment of lidocaine and methylnaltrexone has the potential to suppress inflammatory signaling.

The mark [5] stands for this setting: Example 4, 10 µM lidocaine, different time points.
The mark [6] stands for this setting: Example 8, 10 µM lidocaine, 100 nM methylnaltrexone or both, different time points.

Like-named read-outs stand apart in the source and are kept apart here.

Regarding `CCN(CC)CC(=O)Nc1c(C)cccc1C` [lidocaine, 2-diethylaminoaceto-2′,6′-xylidide], the “dose from which the level of p-Src protein is reduced” value was not below 10 µM in assay [1] (Example 3, 30 minutes of treatment, 0-100 µM tested) and not below 10 µM in assay [3]. In addition, the “Src phosphorylation (p-Src)” value in assay [1] (setting [5]) was “attenuated Src phosphorylation after 15 minutes and up to 6 hours”; in assay [1] (Example 5, 10 µM lidocaine, different time points, inconsistent banding pattern), “attenuated Src phosphorylation at 30 minutes, 1 hour, 2 hours, and 6 hours”. Further, the “total Src” value in assay [1] (setting [5]) is on record as “not affected”; in assay [1] (Example 5, 10 µM lidocaine over 6 hours, increasing doses of methylnaltrexone, 1 hour) it was “not affected”; in assay [1] (setting [6]), “decreased total Src after 1 hours of exposure”. Moreover, in assay [1] (setting [6]), the “phosphorylation of Src” value is given as “attenuated phosphorylation of Src after 1 hour of exposure”. In addition, the “decrease in TNF-α-induced Src phosphorylation” value in assay [2] (co-incubation with TNF-α and 10 µM lidocaine, p=0.012) is given as 73%. The “decrease in Src phosphorylation at tyrosine 419” value in assay [2] (lidocaine 1 nm-100 µM, 20 minutes, Kruskal-Wallis p=0.146) was “did not reach statistical significance”. The “serum interferon-gamma (IFNγ) level” value in assay [4] is “insignificant changes”. For the same compound, in assay [4], the “serum interleukin 1 alpha (IL-1α) level” value is reported as “insignificant changes”.
